Measurements reported in the supplement of paper PMC13380429.

Experiments:
Conditions in all cases: 72 h
U2OS [1] = assay: cell viability relative to DMSO; higher = less toxic
Calu-3 [2] = assay: as above
Vero E6 [3] = assay: as above
HepG2 [4] = assay: as above
Caco-2 [5] = assay: as above
U2OS [6] = assay: relative viability EC50 (midpoint between 100% and the lowest measured viability); higher = less toxic
Calu-3 [7] = assay: as above
Vero E6 [8] = assay: as above
HepG2 [9] = assay: as above
Caco-2 [10] = assay: as above
U2OS [11] = assay: drug sensitivity score (DSS) for viability; higher = more toxic; extreme values may be limits of the assay
Calu-3 [12] = assay: as above
Vero E6 [13] = assay: as above
HepG2 [14] = assay: as above
Caco-2 [15] = assay: as above

SMILES | cell viability (U2OS [1]; 1 nM) [%] | cell viability (U2OS [1]; 10 nM) [%] | cell viability (U2OS [1]; 100 nM) [%] | cell viability (U2OS [1]; 1000 nM) [%] | cell viability (U2OS [1]; 10000 nM) [%] | cell viability (Calu-3 [2]; 1 nM) [%] | cell viability (Calu-3 [2]; 10 nM) [%] | cell viability (Calu-3 [2]; 100 nM) [%] | cell viability (Calu-3 [2]; 1000 nM) [%] | cell viability (Calu-3 [2]; 10000 nM) [%] | cell viability (Vero E6 [3]; 1 nM) [%] | cell viability (Vero E6 [3]; 10 nM) [%] | cell viability (Vero E6 [3]; 100 nM) [%] | cell viability (Vero E6 [3]; 1000 nM) [%] | cell viability (Vero E6 [3]; 10000 nM) [%] | cell viability (HepG2 [4]; 1 nM) [%] | cell viability (HepG2 [4]; 10 nM) [%] | cell viability (HepG2 [4]; 100 nM) [%] | cell viability (HepG2 [4]; 1000 nM) [%] | cell viability (HepG2 [4]; 10000 nM) [%] | cell viability (Caco-2 [5]; 1 nM) [%] | cell viability (Caco-2 [5]; 10 nM) [%] | cell viability (Caco-2 [5]; 100 nM) [%] | cell viability (Caco-2 [5]; 1000 nM) [%] | cell viability (Caco-2 [5]; 10000 nM) [%] | relative viability EC50 (U2OS [6]) [µM] | relative viability EC50 (Calu-3 [7]) [µM] | relative viability EC50 (Vero E6 [8]) [µM] | relative viability EC50 (HepG2 [9]) [µM] | relative viability EC50 (Caco-2 [10]) [µM] | drug sensitivity score (U2OS [11]) | drug sensitivity score (Calu-3 [12]) | drug sensitivity score (Vero E6 [13]) | drug sensitivity score (HepG2 [14]) | drug sensitivity score (Caco-2 [15])
CCCCc1nc(-c2ccc(OCCCN(CC)CC)cc2)cn1-c1ccc(Oc2ccc(Cl)cc2)cc1 [azeliragon] | 97.7 | 97.8 | 98.9 | 91 | 30.4 | 109 | 105 | 99.4 | 98.9 | 8.5 | 96.2 | 105 | 91.8 | 99.5 | 0 | 95.1 | 94.8 | 90.2 | 94 | 0.1 | 101 | 97 | 99.4 | 93.5 | 4.5 | 2.12 | 3.08 | 3.13 | 2.69 | 2.61 | 5.3 | 5.2 | 5.7 | 6.4 | 6.3
CC(C)(CCCCCC(O)CCCCCC(C)(C)C(=O)O)C(=O)O [bempedoic-acid] | 97.6 | 97.2 | 97.7 | 100 | 100 | 90.2 | 92.3 | 87.2 | 92.1 | 92.6 | 106 | 104 | 98 | 100 | 98 | 102 | 98.2 | 107 | 98.2 | 102 | 98.5 | 95.6 | 96.8 | 96.1 | 95 | > 10 | > 10 | > 10 | > 10 | > 10 | 0 | 0 | 0 | 0 | 0
O=C(CCCN1CCC(n2c(=O)[nH]c3ccccc32)CC1)c1ccc(F)cc1 [benperidol] | 98.2 | 108 | 98.1 | 106 | 96.1 | 101 | 88.1 | 82.4 | 94.4 | 99.1 | 105 | 96.2 | 98 | 100 | 95.9 | 103 | 107 | 107 | 107 | 97.5 | 102 | 99.2 | 98.1 | 102 | 103 | > 10 | > 10 | > 10 | > 10 | > 10 | 0 | 0 | 0 | 0 | 0
CC(COc1ccccc1Cc1ccccc1)N1CCCCC1 (stereo not given) [benproperine] | 92.8 | 96.3 | 92 | 102 | 89.3 | 94.8 | 106 | 89 | 103 | 88.4 | 112 | 100 | 103 | 101 | 98.1 | 104 | 109 | 96.5 | 85.7 | 87.9 | 90.6 | 106 | 96.4 | 100 | 83.4 | > 10 | > 10 | > 10 | > 10 | > 10 | 0 | 0 | 0 | 1.5 | 0.3
CC(C)(Oc1ccc(CCNC(=O)c2ccc(Cl)cc2)cc1)C(=O)O [bezafibrate] | 102 | 97 | 96.2 | 94 | 98.3 | 110 | 98.5 | 108 | 97 | 98.4 | 106 | 105 | 101 | 104 | 93.4 | 98.1 | 93.1 | 91.5 | 97.4 | 102 | 102 | 95.7 | 96.8 | 98 | 94.3 | > 10 | > 10 | > 10 | > 10 | > 10 | 0 | 0 | 0 | 0 | 0
Brc1ccc(NC2C3CC4CC(C3)CC2C4)cc1 (stereo not given) [bromantan] | 102 | 99.6 | 101 | 96.9 | 101 | 89.6 | 90.6 | 98.3 | 102 | 87.9 | 101 | 100 | 99.5 | 108 | 98.8 | 105 | 100 | 92 | 106 | 94.3 | 104 | 95.9 | 104 | 99.9 | 92.8 | > 10 | > 10 | > 10 | > 10 | > 10 | 0 | 0 | 0 | 0 | 0
CC(C)(C)NCC(O)c1cc(Br)no1 (stereo not given) [broxaterol] | 104 | 99.1 | 97.6 | 102 | 99.4 | 111 | 95.4 | 108 | 111 | 95.9 | 105 | 101 | 103 | 98.8 | 99.4 | 105 | 96.9 | 92.5 | 94.8 | 97.2 | 103 | 99.2 | 93 | 96.2 | 104 | > 10 | > 10 | > 10 | > 10 | > 10 | 0 | 0 | 0 | 0 | 0
CC(C)NCC(O)COc1cccc2[nH]c3ccccc3c12 (stereo not given) [carazolol] | 103 | 96.3 | 102 | 97.8 | 99.7 | 102 | 101 | 90.9 | 95.7 | 106 | 98 | 99.1 | 90.1 | 100 | 99.3 | 85.6 | 99 | 98.6 | 101 | 104 | 97.4 | 89.7 | 104 | 98.1 | 105 | > 10 | > 10 | > 10 | > 10 | > 10 | 0 | 0 | 0 | 0 | 0
COCC1=C(C(=O)O)N2C(=O)[C@@H](NC(=O)/C(=N\OC)c3csc(N)n3)[C@H]2SC1 [cefpodoxime] | 104 | 99.6 | 105 | 102 | 101 | 98 | 105 | 96.8 | 99.4 | 103 | 99.7 | 98.1 | 99.2 | 97.5 | 99.4 | 106 | 103 | 108 | 101 | 96.1 | 106 | 112 | 97.5 | 91.4 | 105 | > 10 | > 10 | > 10 | > 10 | > 10 | 0 | 0 | 0 | 0 | 0
CCN(CC)C(=O)Nc1ccc(OCC(O)CNC(C)(C)C)c(C(C)=O)c1 (stereo not given) [celiprolol] | 101 | 100 | 96.5 | 95.9 | 95.3 | 104 | 104 | 106 | 98.7 | 96.4 | 103 | 104 | 102 | 106 | 97.3 | 99.6 | 98.9 | 106 | 88.1 | 103 | 95.4 | 106 | 112 | 103 | 106 | > 10 | > 10 | > 10 | > 10 | > 10 | 0 | 0 | 0 | 0 | 0
CC1=C(C(=O)O)N2C(=O)[C@@H](NC(=O)[C@H](N)c3ccccc3)[C@H]2SC1 [cephalexin] | 99.2 | 91.5 | 99.1 | 94.7 | 104 | 94.8 | 101 | 88.4 | 112 | 94.9 | 95.8 | 100 | 96.7 | 101 | 103 | 101 | 97.1 | 92.7 | 95.2 | 105 | 95.2 | 94.6 | 100 | 98 | 115 | > 10 | > 10 | > 10 | > 10 | > 10 | 0 | 0 | 0 | 0 | 0
Oc1ccc(Cl)c2c1CCC2 [chlorindanol] | 101 | 98.8 | 97.1 | 107 | 98.9 | 99.8 | 118 | 107 | 109 | 96.9 | 99.5 | 100 | 103 | 96.4 | 103 | 110 | 89.5 | 97.9 | 95.2 | 84.1 | 115 | 93.9 | 84.6 | 105 | 99.5 | > 10 | > 10 | > 10 | > 10 | > 10 | 0 | 0 | 0 | 0.3 | 0
CN(C)CC/C=C1/c2ccccc2Sc2ccc(Cl)cc21 [chlorprothixene] | 104 | 101 | 102 | 99.7 | 100 | 103 | 101 | 106 | 106 | 84.8 | 103 | 110 | 103 | 106 | 89.2 | 99.6 | 103 | 103 | 98.4 | 82.9 | 122 | 99.5 | 96.2 | 90.5 | 100 | > 10 | > 10 | > 10 | > 10 | > 10 | 0 | 0.1 | 0 | 0.6 | 0
N[C@]1(C(=O)O)CC[C@@H](C(=O)O)C1 [cis-ACPD] | 98.7 | 94.1 | 98.1 | 101 | 97.9 | 95.3 | 101 | 108 | 107 | 101 | 103 | 99.1 | 99.4 | 98.1 | 102 | 105 | 111 | 99.5 | 96.1 | 103 | 102 | 94.7 | 101 | 104 | 94.5 | > 10 | > 10 | > 10 | > 10 | > 10 | 0 | 0 | 0 | 0 | 0
